Holding throughout (type): cell-based
For assay [1], the system named is Gaeumannomyces graminis. As to the kind of experiment: Gaeumannomyces graminis / liquid culture (take-all of cereals). The note with it: growth inhibition photometrically 4-5 days after application, compared to untreated control. How it is done: 6. Gaeumannomyces Graminis/Liquid Culture (Take-all of Cereals) Mycelial fragments of the fungus from cryogenic storage were directly mixed into nutrient broth (PDB potato dextrose broth). After placing a (DMSO) solution of test compound into a microtiter plate (96-well format), the nutrient broth containing the fungal spores is added. The test plates are incubated at 24° C. and the inhibition of growth is determined photometrically 4-5 days after application.

The subject of assay [2] is Pythium ultimum. Description: Pythium ultimum / liquid culture (seedling damping off). To be noted: Globisporangium ultimum, growth inhibition photometrically 2-3 days after application, compared to untreated control. How it is done:
15. Pythium ultimum/Liquid Culture (Seedling Damping Off) Mycelia fragments and oospores of a newly grown liquid culture of the fungus are directly mixed into nutrient broth (PDB potato dextrose broth). After placing a (DMSO) solution of test compound into a microtiter plate (96-well format), the nutrient broth containing the fungal mycelia/spore mixture is added. The test plates are incubated at 24° C. and the inhibition of growth is determined photometrically 2-3 days after application.

Assay [3] has as its system Monographella nivalis (Microdochium nivale). As to the kind of experiment: Monographella nivalis (Microdochium nivale) / liquid culture (foot rot cereals). To be noted: growth inhibition photometrically 4-5 days after application, compared to untreated control. How it is done: 8. Monographella nivalis (Microdochium nivale)/Liquid Culture (Foot Rot Cereals) Conidia of the fungus from cryogenic storage are directly mixed into nutrient broth (PDB potato dextrose broth). After placing a (DMSO) solution of test compound into a microtiter plate (96-well format), the nutrient broth containing the fungal spores is added. The test plates are incubated at 24° C. and the inhibition of growth is determined photometrically 4-5 days after application.

By inhibition of growth is commonly meant the percentage by which the read-out fell short of the control. Low readings indicate a response near the control, high ones a response far below the control. For the compound `COc1c(C(=O)Oc2ccc(C#N)cc2)ccc2c1B(O)OC2` [Compound 14, (4-cyanophenyl) 1-hydroxy-7-methoxy-3H-2,1-benzoxaborole-6-carboxylate], the inhibition of growth at 20 ppm in assay [1] and in assay [2] was at least 80% throughout.
For the compound `COc1c(C(=O)NCc2c(C)cccc2Cl)ccc2c1B(O)OC2` [Compound 31, N-[(2-chloro-6-methyl-phenyl)methyl]-1-hydroxy-7-methoxy-3H-2,1-benzoxaborole-6-carboxamide], the inhibition of growth at 20 ppm in assay [3] and in assay [2] was at least 80% in each case.
For `CCOc1ccc(NC(=O)c2ccc3c(c2OC)B(O)OC3)cc1Cl` [Compound 41, N-(3-chloro-4-ethoxy-phenyl)-1-hydroxy-7-methoxy-3H-2,1-benzoxaborole-6-carboxamide], in assay [3], the inhibition of growth at 20 ppm is at least 80%.
Regarding `COc1c(C(=O)Nc2nc(C(C)C)ncc2C)ccc2c1B(O)OC2` [Compound 45, 1-hydroxy-N-(2-isopropyl-5-methyl-pyrimidin-4-yl)-7-methoxy-3H-2,1-benzoxaborole-6-carboxamide], the inhibition of growth at 20 ppm in assay [3] and in assay [2] was at least 80% in each case.
With `COc1c(C(=O)Nc2n[nH]c(C(F)(F)F)n2)ccc2c1B(O)OC2` [Compound 46, 1-hydroxy-7-methoxy-N-[5-(trifluoromethyl)-1H-1,2,4-triazol-3-yl]-3H-2,1-benzoxaborole-6-carboxamide], the inhibition of growth at 20 ppm in assay [3] and in assay [2] was at least 80% in each case.
In the case of `COc1c(C(=O)N(C)c2nnc(C(F)(F)F)s2)ccc2c1B(O)OC2` [Compound 49, 1-hydroxy-7-methoxy-N-methyl-N-[5-(trifluoromethyl)-1,3,4-thiadiazol-2-yl]-3H-2,1-benzoxaborole-6-carboxamide], the inhibition of growth at 20 ppm in assay [3] and in assay [2] was at least 80% throughout.
As to `COC(=O)c1cccc(NC(=O)c2ccc3c(c2OC)B(O)OC3)c1` [Compound 52, methyl 3-[(1-hydroxy-7-methoxy-3H-2,1-benzoxaborole-6-carbonyl)amino]benzoate], the inhibition of growth at 20 ppm in assay [3] and in assay [2] was at least 80% each time.
Turning to `COc1c(C(=O)Nc2ccc(Cl)cc2F)ccc2c1B(O)OC2` [Compound 54, N-(4-chloro-2-fluoro-phenyl)-1-hydroxy-7-methoxy-3H-2,1-benzoxaborole-6-carboxamide], in assay [3], the inhibition of growth at 20 ppm was at least 80%.
Consider `COc1c(C(=O)Nc2ccc(OC(F)(F)F)cc2)ccc2c1B(O)OC2` [Compound 55, 1-hydroxy-7-methoxy-N-[4-(trifluoromethoxy)phenyl]-3H-2,1-benzoxaborole-6-carboxamide], for which the inhibition of growth at 20 ppm in assay [3] was at least 80%.
Regarding `COc1c(C(=O)NC(C)c2ccc(F)cc2)ccc2c1B(O)OC2` (centres unmarked) [Compound 57, N-[1-(4-fluorophenyl)ethyl]-1-hydroxy-7-methoxy-3H-2,1-benzoxaborole-6-carboxamide], the inhibition of growth at 20 ppm in assay [3] and in assay [2] was at least 80% each time.
On to `CCCNC(=O)c1ccc2c(c1OC)B(O)OC2` [Compound 63, 1-hydroxy-7-methoxy-N-propyl-3H-2,1-benzoxaborole-6-carboxamide], for which the inhibition of growth at 20 ppm in assay [3] and in assay [2] was at least 80% each time.
In the case of `COc1c(C(=O)Nc2ccc(C)cn2)ccc2c1B(O)OC2` [Compound 66, 1-hydroxy-7-methoxy-N-(5-methyl-2-pyridyl)-3H-2,1-benzoxaborole-6-carboxamide], the inhibition of growth at 20 ppm in assay [3] and in assay [2] was at least 80% in each case.
`CCC1COC(CNC(=O)c2ccc3c(c2OC)B(O)OC3)O1` (centres unmarked) [Compound 69, N-[(4-ethyl-1,3-dioxolan-2-yl)methyl]-1-hydroxy-7-methoxy-3H-2,1-benzoxaborole-6-carboxamide]: the inhibition of growth at 20 ppm in assay [2] is at least 80%.
Still for that read-out and setting: in the case of `COc1c(C(=O)NCc2ccc(C)o2)ccc2c1B(O)OC2` [Compound 70, 1-hydroxy-7-methoxy-N-[(5-methyl-2-furyl)methyl]-3H-2,1-benzoxaborole-6-carboxamide] it was at least 80%; in that of `COc1c(C(=O)n2nc(N)cc2C)ccc2c1B(O)OC2` [Compound 71, (3-amino-5-methyl-pyrazol-1-yl)-(1-hydroxy-7-methoxy-3H-2,1-benzoxaborol-6-yl)methanone], at least 80%.
The same measure, in the same setting: in the case of `COc1c(C(=O)N2CCCC2CO)ccc2c1B(O)OC2` (centres unmarked) [Compound 72, (1-hydroxy-7-methoxy-3H-2,1-benzoxaborol-6-yl)-[2-(hydroxymethyl)pyrrolidin-1-yl]methanone] it was at least 80%; in that of `COc1c(C(=O)OCn2cncn2)ccc2c1B(O)OC2` [Compound 73, 1,2,4-triazol-1-ylmethyl 1-hydroxy-7-methoxy-3H-2,1-benzoxaborole-6-carboxylate], at least 80%.
Consider `COc1c(C(=O)OCC(C)(F)F)ccc2c1B(O)OC2` [Compound 74, 2,2-difluoropropyl 1-hydroxy-7-methoxy-3H-2,1-benzoxaborole-6-carboxylate], for which, in assay [2], the inhibition of growth at 20 ppm was at least 80%.
On the same count and under the same terms, in the case of `COc1c(C(=O)OCC(C)=O)ccc2c1B(O)OC2` [Compound 76, acetonyl 1-hydroxy-7-methoxy-3H-2,1-benzoxaborole-6-carboxylate] it was at least 80%; in that of `COc1cc(COC(=O)c2ccc3c(c2OC)B(O)OC3)nc(OC)n1` [Compound 78, (2,6-dimethoxypyrimidin-4-yl)methyl 1-hydroxy-7-methoxy-3H-2,1-benzoxaborole-6-carboxylate], at least 80%.
`COc1c(C(=O)OCc2ncc(Cl)cc2F)ccc2c1B(O)OC2` [Compound 87, (5-chloro-3-fluoro-2-pyridyl)methyl 1-hydroxy-7-methoxy-3H-2,1-benzoxaborole-6-carboxylate]: the inhibition of growth at 20 ppm in assay [1] and in assay [2] was at least 80% each time.
Consider `COc1c(C(=O)OC(C)c2cc(C(F)(F)F)n[nH]2)ccc2c1B(O)OC2` (centres unmarked) [Compound 91, 1-[3-(trifluoromethyl)-1H-pyrazol-5-yl]ethyl 1-hydroxy-7-methoxy-3H-2,1-benzoxaborole-6-carboxylate], for which the inhibition of growth at 20 ppm in assay [1] and in assay [2] was at least 80% throughout.
Take `COc1c(C(=O)OCCON=C(C)C)ccc2c1B(O)OC2` [Compound 93, 2-(isopropylideneamino)oxyethyl 1-hydroxy-7-methoxy-3H-2,1-benzoxaborole-6-carboxylate]: the inhibition of growth at 20 ppm in assay [1] and in assay [2] was at least 80% in each case.
Regarding `COc1c(C(=O)OCn2cnc(Cl)c2Cl)ccc2c1B(O)OC2` [Compound 97, (4,5-dichloroimidazol-1-yl)methyl 1-hydroxy-7-methoxy-3H-2,1-benzoxaborole-6-carboxylate], the inhibition of growth at 20 ppm in assay [1] and in assay [2] was at least 80% throughout.
`COc1c(C(=O)OCc2ccncc2)ccc2c1B(O)OC2` [Compound 106, 4-pyridylmethyl 1-hydroxy-7-methoxy-3H-2,1-benzoxaborole-6-carboxylate] displayed an inhibition of growth at 20 ppm in assay [2] of at least 80%.
In assay [2], `COC(=O)C[C@H](OC(=O)c1ccc2c(c1OC)B(O)OC2)C(=O)OC` [Compound 108, dimethyl (2S)-2-(1-hydroxy-7-methoxy-3H-2,1-benzoxaborole-6-carbonyl)oxybutanedioate] came in with an inhibition of growth at 20 ppm of at least 80%.
Same read-out and setting: in the case of `COc1c(C(=O)OCCN(C)C(=O)OC(C)(C)C)ccc2c1B(O)OC2` [Compound 112, 2-[tert-butoxycarbonyl(methyl)amino]ethyl 1-hydroxy-7-methoxy-3H-2,1-benzoxaborole-6-carboxylate] it was at least 80%; in that of `COc1c(C(=O)OCC2COC(=O)O2)ccc2c1B(O)OC2` (centres unmarked) [Compound 113, (2-oxo-1,3-dioxolan-4-yl)methyl 1-hydroxy-7-methoxy-3H-2,1-benzoxaborole-6-carboxylate], at least 80%.
With `COc1c(C(=O)OCc2cccc(C)n2)ccc2c1B(O)OC2` [Compound 119, (6-methyl-2-pyridyl)methyl 1-hydroxy-7-methoxy-3H-2,1-benzoxaborole-6-carboxylate], the inhibition of growth at 20 ppm in assay [3] and in assay [2] was at least 80% throughout.
`COc1c(C(=O)OCc2cc(Cl)ccc2Cl)ccc2c1B(O)OC2` [Compound 120, (2,5-dichlorophenyl)methyl 1-hydroxy-7-methoxy-3H-2,1-benzoxaborole-6-carboxylate] registered an inhibition of growth at 20 ppm in assay [1] of at least 80%.
Turning to `COc1c(C(=O)OC2COCOC2)ccc2c1B(O)OC2` [Compound 122, 1,3-dioxan-5-yl 1-hydroxy-7-methoxy-3H-2,1-benzoxaborole-6-carboxylate], in assay [2], the inhibition of growth at 20 ppm is at least 80%.
Same read-out and setting: in the case of `COc1c(C(=O)OCCc2ccccn2)ccc2c1B(O)OC2` [Compound 123, 2-(2-pyridyl)ethyl 1-hydroxy-7-methoxy-3H-2,1-benzoxaborole-6-carboxylate] it was at least 80%.
On the same count and under the same terms, in the case of `COc1cc(COC(=O)c2ccc3c(c2OC)B(O)OC3)ccc1O` [Compound 126, (4-hydroxy-3-methoxy-phenyl)methyl 1-hydroxy-7-methoxy-3H-2,1-benzoxaborole-6-carboxylate] it was at least 80%.

For the origin of these results see patent publication US20180244699A1, “1-HYDROXY-3H-2,1-BENZOXABOROLE DERIVATIVES AND THEIR USE AS MICROBIOCIDES” (Syngenta Participations AG, priority 2015, published 2018).
